EP4768484A1, “HETEROCYCLIC FUSED RING COMPOUND, AND COMPOSITION AND USE THEREOF” (Shenzhen TargetRx, Inc., priority 2023, dated 2025)

What was measured:
Type in all cases: cell-based
Ba/F3 BCR-ABL1 WT = target: T1, Ba/F3 BCR-ABL1 WT (Homo sapiens, UniProt P00519+P11274); test: Cell growth inhibitory activity assay (CellTiter-Glo), Ba/F3 BCR-ABL1 WT cells; conditions: 72 h, CTG cell viability
T1 construct: BCR (N-terminal fusion partner of the oncoprotein); expressed in transfected cells; host or cells: Ba/F3 (lentiviral transduction, monoclonal line)
Summary of the method: (§1)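 Compound dilutions applied for 72 h (37 °C, 5% CO2) to overnight-plated Ba/F3 cells, parental or engineered to express WT/mutant BCR-ABL1. ATP-based CellTiter-Glo luminescence read, referenced to day-0 viability and 0.5% DMSO wells; IC50 fitted by four-parameter logistic curve.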

Ba/F3 BCR-ABL1 T315I = target: T2, Ba/F3 BCR-ABL1 T315I (Homo sapiens, UniProt P00519+P11274, T315I); test: Cell growth inhibitory activity assay (CellTiter-Glo), Ba/F3 BCR-ABL1 T315I cells; conditions: 72 h, CTG cell viability
T2 construct: BCR (N-terminal fusion partner of the oncoprotein); expressed in transfected cells; host or cells: Ba/F3 (lentiviral transduction, monoclonal line)
Summary of the method: as §1

K562 cells = test: Cell growth inhibitory activity assay (CellTiter-Glo), K562 cells; conditions: Homo sapiens, 72 h, CTG cell viability
Summary of the method: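 K562 cells in logarithmic growth were counted, diluted and plated in 96-well plates, with medium-only blanks and a separate T0 plate read by CTG the following day. After overnight incubation, graded compound concentrations were added for 72 h, with 0.5% DMSO wells as growth controls. Luminescence was read on a Biotek cytation3.0, and IC50 came from nonlinear fitting in GraphPad Prism 7.0.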

Ba/F3 parental cells = test: Cell growth inhibitory activity assay (CellTiter-Glo), Ba/F3 parental cells; conditions: Mus musculus, BaF3, 72 h, CTG cell viability, read-out: IC50 Ba/F3 BCR-ABL1 Parental
Summary of the method: as §1

| Structure (SMILES) | IC50 (Ba/F3 BCR-ABL1 WT) [nM] | IC50 (Ba/F3 BCR-ABL1 T315I) [nM] | IC50 (K562 cells) [nM] | IC50 (Ba/F3 parental cells) [nM] |
| --- | --- | --- | --- | --- |
| [2H]C([2H])([2H])n1cc2c(n1)-c1cc(-c3cc(C(=O)Nc4ccc(OC(F)(F)Cl)cc4)cc4nc5n(c34)[C@H](C)COC5)cnc1C2 [T-53, (R)-N-(4-(chlorodifluoromethoxv)phenyl)-4-methyl-6-(2-(methyl-d3)-2,4-dihydropyrazolo[3',4':3,4]cyclopenta[1,2-b]pyridin-7-yl)-3,4-dihydro-1H-benzo[4,5]imidazo[2,1-c][1,4]oxazine-8-carboxamide] | ≤ 5 | ≤ 5 | ≤ 5 | > 1000 |
| O=C(Nc1ccc(OC(F)(F)Cl)cc1)c1cnc(N2CC[C@@H](F)C2)c(-c2cnc3c(c2)-c2nn(-c4ncc(N5CC[C@H](F)C5)cn4)cc2C3)c1 [T-55, N-(4-(chlorodifluoromethoxy)phenyl)-6-((R)-3-fluoropyrrolidin-1-yl)-5-(2-(5-((S)-3-fluoropyrrolidin-1-yl)pyrimidin-2-yl)-2,4-dihydropyrazolo[3',4':3,4]cyclopenta[1,2-b]pyridin-7-yl)nicotinamide] | ≤ 5 | 5 to 50 | ≤ 5 | > 1000 |
| C[C@@H]1COCc2nc3cc(C(=O)Nc4ccc(OC(F)(F)Cl)cc4)cc(-c4cnc5c(c4)-c4nn(CCOC(C)(C)C)cc4C5)c3n21 [T-56-A, (R)-6-(2-(2-(tert-butoxy)ethyl)-2,4-dihydropyrazolo[3',4':3,4]cyclopenta[1,2-b]pyridin-7-yl)-N-(4-(chlorodifluoromethoxy)phenyl)-4-methyl-3,4-dihydro-1H-benzo[4,5]imidazo[2,1-c][1,4]oxazine-8-carboxamide] | 50 to 1000 | > 1000 | 5 to 50 | > 1000 |
| C[C@@H]1COCc2nc3cc(C(=O)Nc4ccc(OC(F)(F)Cl)cc4)cc(-c4cnc5c(c4)-c4c(cnn4CCOC(C)(C)C)C5)c3n21 [T-56-B, (R)-6-(1-(2-(tert-butoxy)ethyl)-1,4-dihydropyrazolo[3',4':3,4]cyclopenta[1,2-b]pyridin-7-yl)-N-(4-(chlorodifluoromethoxy)phenyl)-4-methyl-3,4-dihydro-1H-benzo[4,5]imidazo[2,1-c][1,4]oxazine-8-carboxamide] | ≤ 5 | > 1000 | ≤ 5 | > 1000 |
| C[C@@H]1COCc2nc3cc(C(=O)Nc4ccc(OC(F)(F)Cl)cc4)cc(-c4cnc5c(c4)C(=O)CC5)c3n21 [T-58, (R)-N-(4-(chlorodifluoromethoxy)phenyl)-4-methyl-6-(5-oxo-6,7-dihydro-5H-cyclopenta[b]pyridin-3-yl)-3,4-dihydro-1H-benzo[4,5]imidazo[2,1-c][1,4]oxazine-8-carboxamide] | ≤ 5 | 5 to 50 | ≤ 5 | > 1000 |
| C[C@@H]1COCc2nc3cc(C(=O)Nc4ccc(OC(F)(F)Cl)cc4)cc(-c4cnc5c(c4)C(=O)/C(=C\N(C)C)C5)c3n21 [T-59, (R,Z)-N-(4-(chlorodifluoromethoxy)phenyl)-6-(6-((dimethylamino)methylene)-5-oxo-6,7-dihydro-5H-cyclopenta[b]pyridin-3-yl)-4-methyl-3,4-dihydro-1H-benzo[4,5]imidazo[2,1-c][1,4]oxazine-8-carboxamide] | ≤ 5 | 50 to 1000 | ≤ 5 | > 1000 |
| C[C@@H]1COCc2nc3cc(C(=O)Nc4ccc(OC(F)(F)Cl)cc4)cc(-c4cnc5c(c4)-c4n[nH]cc4C5=O)c3n21 [T-60, (R)-N-(4-(chlorodifluoromethoxy)phenyl)-4-methyl-6-(4-oxo-2,4-dihydropyrazolo[3',4':3,4]cyclopenta[1,2-b]pyridin-7-yl)-3,4-dihydro-1H-benzo[4,5]imidazo[2,1-c][1,4]oxazine-8-carboxamide] | ≤ 5 | > 1000 | ≤ 5 | > 1000 |
| C[C@@H]1COCc2nc3cc(C(=O)Nc4ccc(OC(F)(F)Cl)cc4)cc(-c4ccc5c(c4)C(=O)N(C)C5)c3n21 [T-61, (R)-N-(4-(chlorodifluoromethoxy)phenyl)-4-methyl-6-(2-methyl-3-oxoisoindolin-5-yl)-3,4-dihydro-1H-benzo[4,5]imidazo[2,1-c][1,4]oxazine-8-carboxamide] | ≤ 5 | 5 to 50 | ≤ 5 | > 1000 |
| C[C@@H]1COCc2nc3cc(C(=O)Nc4ccc(OC(F)(F)Cl)cc4)cc(-c4ccc5c(c4)C(=O)N(C)C5=O)c3n21 [T-62, (R)-N-(4-(chlorodifluoromethoxy)phenyl)-4-methyl-6-(2-methyl-1,3-dioxoisoindolin-5-yl)-3,4-dihydro-1H-benzo[4,5]imidazo[2,1-c][1,4]oxazine-8-carboxamide] | 5 to 50 | 50 to 1000 | ≤ 5 | > 1000 |
| C[C@@H]1COCc2nc3cc(C(=O)Nc4ccc(OC(F)(F)Cl)cc4)cc(-c4cnc5c(c4)-c4nn(-c6cccnc6)cc4C5)c3n21 [T-63] | ≤ 5 | > 1000 | ≤ 5 | > 1000 |
| C[C@@H]1COCc2nc3cc(C(=O)Nc4ccc(OC(F)(F)Cl)cc4)cc(-c4cnc5c(c4)-c4nn(-c6ccncc6)cc4C5)c3n21 [T-64] | ≤ 5 | > 1000 | ≤ 5 | > 1000 |
| COc1nc(OC)nc(-n2cc3c(n2)-c2cc(-c4cc(C(=O)Nc5ccc(OC(F)(F)Cl)cc5)cc5nc6n(c45)[C@H](C)COC6)cnc2C3)n1 [T-70, (R)-N-(4-(chlorodifluoromethoxy)phenyl)-6-(2-(4,6-dimethoxy-1,3,5-triazin-2-yl)-2,4-dihydropyrazolo[3',4':3,4]cyclopenta[1,2-b]pyridin-7-yl)-4-methyl-3,4-dihydro-1H-benzo[4,5]imidazo[2,1-c][1,4]oxazine-8-carboxamide] | ≤ 5 | 5 to 50 | ≤ 5 | > 1000 |
| C[C@@H]1COCc2nc3cc(C(=O)Nc4ccc(OC(F)(F)Cl)cc4)cc(-c4cnc5c(c4)-c4nn(-c6nccc(C(F)(F)F)n6)cc4C5)c3n21 [T-72, (R)-N-(4-(chlorodifluoromethoxy)phenyl)-4-methyl-6-(2-(4-(trifluoromethyl)pyrimidin-2-yl)-2,4-dihydropyrazolo[3',4':3,4]cyclopenta[1,2-b]pyridin-7-yl)-3,4-dihydro-1H-benzo[4,5]imidazo[2,1-c][1,4]oxazine-8-carboxamide] | ≤ 5 | ≤ 5 | ≤ 5 | > 1000 |
| Cc1cnc(-n2cc3c(n2)-c2cc(-c4cc(C(=O)Nc5ccc(OC(F)(F)Cl)cc5)cc5nc6n(c45)[C@H](C)COC6)cnc2C3)nc1 [T-74, (R)-N-(4-(chlorodifluoromethoxy)phenyl)-4-methyl-6-(2-(5-methylpyrimidin-2-yl)-2,4-dihydropyrazolo[3',4':3,4]cyclopenta[1,2-b]pyridin-7-yl)-3,4-dihydro-1H-benzo[4,5]imidazo[2,1-c][1,4]oxazine-8-carboxamide] | ≤ 5 | ≤ 5 | ≤ 5 | > 1000 |
